According to the NIST ThermoML archive (doi:10.1016/j.jct.2004.11.020):

Experiments:
[1] = 308.15 K, 101.33 kPa, Liquid; for speed of sound: Pulse-echo method
[2] = xn = mol fraction of the nth substance listed; conditions: 308.15 K, 101 kPa, Liquid; for speed of sound: Pulse-echo method

OCCCCO [1,4-butanediol]
[1]
Conditions	mass density [kg/m3]	speed of sound [m/s]	viscosity [mPa·s]
–	1003.95	1577.8	47.38

CC(O)CCO (configuration not stated) [1,3-butanediol] + O=C1CCCN1
[2]
Conditions	excess molar volume [m3/mol]	speed of sound [m/s]	viscosity [mPa·s]
x2 = 0.0122	2e-09	–	–
x2 = 0.0261	–	1498	51.57
x2 = 0.0368	8e-09	–	–
x2 = 0.0526	–	1500.5	46.61
x2 = 0.055	2.3e-08	–	–
x2 = 0.0755	–	1502.8	44.87
x2 = 0.0812	3.4e-08	–	–
x2 = 0.0939	4.6e-08	–	–
x2 = 0.1	–	1504.8	40.88
x2 = 0.1079	5.5e-08	–	–
x2 = 0.1227	5.9e-08	–	–
x2 = 0.1447	6.3e-08	–	–
x2 = 0.1543	–	1509.2	36.15
x2 = 0.1594	6.7e-08	–	–
x2 = 0.1843	8.2e-08	–	–
x2 = 0.2041	–	1513.2	31.48
x2 = 0.2174	9.5e-08	–	–
x2 = 0.2396	1.02e-07	–	–
x2 = 0.2586	1.16e-07	–	–
x2 = 0.2859	1.25e-07	–	–
x2 = 0.3003	–	1521.1	26.19
x2 = 0.3054	1.31e-07	–	–
x2 = 0.3436	1.38e-07	–	–
x2 = 0.3606	1.42e-07	–	–
x2 = 0.3817	1.46e-07	–	–
x2 = 0.3932	–	1529.1	21.54
x2 = 0.4337	1.48e-07	–	–
x2 = 0.4571	1.49e-07	–	–
x2 = 0.4815	1.49e-07	–	–
x2 = 0.4985	–	1539	17.82
x2 = 0.519	1.48e-07	–	–
x2 = 0.5798	1.45e-07	–	–
x2 = 0.5931	1.41e-07	–	–
x2 = 0.5936	1.39e-07	–	–
x2 = 0.6015	1.38e-07	–	–
x2 = 0.603	–	1549	15.46
x2 = 0.6087	1.37e-07	–	–
x2 = 0.6204	1.33e-07	–	–
x2 = 0.6319	1.32e-07	–	–
x2 = 0.6419	1.32e-07	–	–
x2 = 0.6744	1.28e-07	–	–
x2 = 0.6903	1.22e-07	–	–
x2 = 0.6985	–	1559.4	13.17
x2 = 0.705	1.2e-07	–	–
x2 = 0.7245	1.15e-07	–	–
x2 = 0.7372	1.15e-07	–	–
x2 = 0.7679	1.07e-07	–	–
x2 = 0.7781	9.8e-08	–	–
x2 = 0.7935	–	1570.9	11.85
x2 = 0.7976	9.2e-08	–	–
x2 = 0.8132	8.3e-08	–	–
x2 = 0.8358	7.3e-08	–	–
x2 = 0.839	–	1576.8	10.81
x2 = 0.8994	–	1585.1	9.984
x2 = 0.9271	–	1589	9.739
x2 = 0.947	–	1592.3	9.44
x2 = 0.9774	–	1596.3	9.15

O=C1CCCN1 [2-pyrrolidinone]
[1]
Conditions	mass density [kg/m3]	speed of sound [m/s]	viscosity [mPa·s]
–	1097.14	1600	8.922

CC(O)C(C)O (configuration not stated) [2,3-butanediol] + O=C1CCCN1
[2]
Conditions	excess molar volume [m3/mol]	speed of sound [m/s]	viscosity [mPa·s]
x2 = 0.0199	1.9e-08	–	–
x2 = 0.0255	–	1458.7	46.85
x2 = 0.0339	3.3e-08	–	–
x2 = 0.0483	4.5e-08	–	–
x2 = 0.0507	–	1460.7	41.26
x2 = 0.0634	5.4e-08	–	–
x2 = 0.0737	6e-08	–	–
x2 = 0.0765	–	1463	39.43
x2 = 0.0885	7.5e-08	–	–
x2 = 0.1001	–	1466.3	37.32
x2 = 0.1008	8.2e-08	–	–
x2 = 0.1118	8.7e-08	–	–
x2 = 0.118	9.3e-08	–	–
x2 = 0.1313	9.9e-08	–	–
x2 = 0.1447	1.06e-07	–	–
x2 = 0.1489	–	1470.5	32.26
x2 = 0.1571	1.12e-07	–	–
x2 = 0.1702	1.17e-07	–	–
x2 = 0.185	1.29e-07	–	–
x2 = 0.1941	–	1475.2	28.87
x2 = 0.2191	1.39e-07	–	–
x2 = 0.2418	1.48e-07	–	–
x2 = 0.2675	1.54e-07	–	–
x2 = 0.2854	1.59e-07	–	–
x2 = 0.2955	–	1488.2	23.79
x2 = 0.3058	1.63e-07	–	–
x2 = 0.3226	1.67e-07	–	–
x2 = 0.3312	1.68e-07	–	–
x2 = 0.3459	1.71e-07	–	–
x2 = 0.3589	1.72e-07	–	–
x2 = 0.383	1.72e-07	–	–
x2 = 0.3899	–	1500.7	19.82
x2 = 0.3973	1.72e-07	–	–
x2 = 0.4043	1.73e-07	–	–
x2 = 0.4156	1.72e-07	–	–
x2 = 0.4506	1.71e-07	–	–
x2 = 0.4667	1.7e-07	–	–
x2 = 0.4926	1.69e-07	–	–
x2 = 0.5097	1.7e-07	–	–
x2 = 0.5261	1.7e-07	–	–
x2 = 0.5294	–	1520.3	16.06
x2 = 0.5431	1.67e-07	–	–
x2 = 0.5651	1.68e-07	–	–
x2 = 0.5844	1.65e-07	–	–
x2 = 0.5898	–	1529.2	14.65
x2 = 0.6052	1.6e-07	–	–
x2 = 0.6266	1.58e-07	–	–
x2 = 0.6501	1.52e-07	–	–
x2 = 0.6693	1.51e-07	–	–
x2 = 0.6894	1.45e-07	–	–
x2 = 0.6978	–	1546.9	12.54
x2 = 0.8089	–	1565.1	11.22
x2 = 0.8587	–	1573.7	10.53
x2 = 0.9067	–	1582	9.623
x2 = 0.9497	–	1590.4	9.337
x2 = 0.9702	–	1594.2	9.114
